Experiments:
[1] = Superoxide anion-scavenging activity, DMPO spin trapping ESR (Example 8); assay type: biochemical; conditions: FIG. 8
Description: In a 50 mM phosphate buffer (pH 7.8), 500 μM xanthine and 75 mU/mL xanthine oxidase reacted together. The generated superoxide anion (O^2−) was assayed with a spin trapping agent (DMPO) by the electron spin resonance method (ESR). The resulting signal intensity (I) was normalized with the signal intensity of the inner standard manganese (S). The resulting value was determined as the relative intensity (RI), for comparison between the value in case of the addition of the test substance and the value in case of the addition of PBS. The ESR was measured under the following conditions. MicroWave Powder: 8 mW; Field: 335±5 mT; Scan Time: 2 min; Mod.: 0.1 mT; Amplitude:×125-400; Time Constant: 0.03 sec.

[2] = test system: VEGF-triggered vascularization; assay: Vascularization-suppressing action, VEGF matrigel plug (Example 9); assay type: in vivo, C57BL/6 mice; conditions: 40 μM in matrigel plug containing 100 ng/mL VEGF; 6 days later; P<0.05; FIG. 9
Description: 5-S-GAD was added to a matrigelplug containing 100 ng/mL VEGF, for injections into female C57BL/6 mice. 6 days later, the matrigel plug was scissored out, to assay the hemoglobin content in the matrigel. The results are shown in mean±standard deviation. Testing were done by the Student's t test (*P<0.05).

NCCC(=O)N[C@@H](Cc1cc(O)c(O)c(SC[C@H](NC(=O)CC[C@H](N)C(=O)O)C(=O)NCC(=O)O)c1)C(=O)O [5-S-GAD, N-β-alanyl-5-S-glutathionyl-3,4-dihydroxyphenylalanine]
superoxide anion (O^2−)-scavenging action compared with TEMPOL (in words) [1]: excellent superoxide anion (O^2−)-scavenging action compared with TEMPOL
suppression of VEGF-triggered vascularization (hemoglobin content in the matrigel) [2]: suppressed significantly

From patent US8304452B2, “Radical scavenger and active oxygen eliminating agent” (InBiotex Inc., priority 2005, dated 2012)
